Assay results published in patent EP0563386A1, “ANTICANCER COMPOSITION AND COMPOUND” (NIPPON SHINYAKU COMPANY, LIMITED, priority 1990, dated 1992).
Structures can show the parent of a compound that is named as a salt.

Experiments:
[1] = system: WiDr (human colon cancer); test: Tumor growth inhibition, WiDr implant in nude mice (Test Example 1); type: in vivo, BALB/c nude mice; conditions: implant volume on day 18 after transplantation divided by volume at transplantation; irsogladine maleate 10 mg/kg orally once daily from day 14; cyclophosphamide 150 mg/kg intraperitoneally once on day 14; groups of 10
Experimental: WiDr (human colon cancer) cells subcultured in BALB/c nude mice were dissected to prepare cubes, about 2 mm³ each. These cubes were transplanted subaxillarily into separate BALB/c nude mice using a transplantation needle. The animals were divided into groups of 10 individuals on day 10 after transplantation and the body weight and the diameter of the implant were serially determined. As the compound of this invention, irsogladine maleate, 10 mg/kg, was suspended in 0.5% methylcellulose solution and administered orally once daily beginning day 14 after transplantation. Cyclophosphamide, 150 mg/kg, was dissolved in PBS and administered intraperitoneally once on day 14 after transplantation. The control group received 0.5% methylcellulose solution orally once daily beginning day 14 after transplantation.
The volume of the implant on day 18 after transplantation was divided by the volume at trans plantation. […]
The effect of the compound of this invention as an anticancer agent is clear.

cancer patients [2] = test: Clinical use with radiotherapy and chemotherapy, 39 case reports (Test Example 8); type: in vivo
Experimental: Predetermined radiotherapy [each proven focus was irradiated with cobalt 60 gamma rays, […], in simply divided doses at intervals of several days and oily bleomycin was administered intramuscularly in a dose range of 0.5-3 mg/day (a total of not more than 50 mg) 30 minutes before and 30 minutes after each irradiation] was given to the following cancer patients and concomitantly the following prescription was given orally.
Following Test Example 7, the clinical effect was investigated. Radiotherapy, chemotherapy and administration of irsogladine maleate were performed in the same manner as in Test Example 7.

Meth A fibrosarcoma = Meth A fibrosarcoma tumor volume in mice (Test Example 2); type: in vivo, BALB/c mice
Experimental: • (1) The homologus tumor Meth A fibrosarcoma subcultured (ascites type) in BALB/c mice, 5 x 10^5 cells, was transplanted subcutaneously at the flank of 6-week-old male BALB/c mice. Mice having a tumor volume of 70-100 mm³ were selected and divided into groups of 9. Oral single daily administration of the test compound was started and the body weight and tumor volume were serially determined. The volume was determined using the same calculation formula as shown in Test Example 1. The compound of the invention irsogladine maleate, 10 mg/kg, suspended in 0.5% methylcellulose maleate and 5-fluorouracil, 15 mg/kg, dissolved in 0.5% methylcellulose solution were respectively administered orally. The control group received 0.5% methylcellulose solution orally. […] The effect of the com pound of this invention as an anticancer agent is, thus, clear. • (2) As in the above test, mice having a tumor volume of 160-180 mm³ were selected and subjected to the same test as above. The compound of this invention irsogladine maleate, 10 mg/kg, 5-flurorouracil, 30 mg/kg, or as a combination therapy, irsogladine maleate, 10 mg/kg, plus 5-fluorouracil, 30 mg/kg, were administered orally. The control group received the same control material as in the above test orally. […] The anticancer adjuvant activity of the compound of this invention to 5-FU is clear.
The open circle stands for control, the open triangle for 5-FU and the closed circle for the compound of the invention. The tumor volume (mm³) is plotted on the vertical axis and the number of days after drug administration on the horizontal axis.
The open circle stands for control, the open triangle for F-5U, the closed circle for the compound of the invention, the open square for the combination therapy. The tumor volume (mm³) is plotted on the vertical axis and the number of days after drug administration on the horizontal axis.

cancer patients [3] = test: Clinical use with radiotherapy and chemotherapy, 45 cancer cases (Test Example 7); type: in vivo
Experimental: Predetermined radiotherapy [each proven focus was irradiated with cobalt 60 gamma rays, about 28 Gy, in simply divided doses at intervals of several days and oily bleomycin was administered intramuscularly in a dose range of 0.5-3 mg/day (a total of not more than 50 mg) 30 minutes before and 30 minutes after each irradiation] was given to the following cancer patients and concomitantly the following prescription was given orally.

With Nc1nc(N)nc(-c2cc(Cl)ccc2Cl)n1 [irsogladine maleate] the Tumor volume ratio [1] was 1.52 ± 0.08, the clinical outcome (cancer patients [2]; (1) case (1): person, SCC of the pharynx metastasized to the right neck, about 15 days, with irradiation and chemotherapy) was “complete resoltuion of the tumor” and the clinical outcome (cancer patients [2]; (1) case (2): person, SCC of the pharynx metastasized to the left neck, with radiotherapy and chemotherapy) was “complete resolution of the tumor”. The clinical outcome (cancer patients [2]; (1) case (3): person, pharyngeal cancer with lymph node and lung metastasis, with radiotherapy and chemotherapy) was “complete resolution of the tumor”, the clinical outcome (cancer patients [2]; (1) case (4): person, SCC of the anterior association of the vocal cord, pharyngeal cancer, with radiotherapy and chemotherapy) was “complete resolution of the tumor” and the clinical outcome (cancer patients [2]; (1) case (5): person, SCC of the pharynx, metastasis to the mediastinum, with radiotherapy and chemotherapy) was “complete resolution of the tumor”. For the same compound, the clinical outcome (cancer patients [2]; (1) case (6): person, tumor in the anterior association of the vocal cord, with radiotherapy and chemotherapy) was “partial resolution of the tumor”, the clinical outcome (cancer patients [2]; (1) case (7): person, SCC of the pharynx, with radiotherapy and chemotherapy) was “complete resolution of the tumor” and the clinical outcome (cancer patients [2]; (2) case (1): person, TCC of the ureter, after resection, with radiotherapy and chemotherapy) was “complete resolution of the tumor”. The clinical outcome (cancer patients [2]; (2) case (2): person, TCC of the ureter, relapsed, with radiotherapy and chemotherapy) was “partial resolution of the tumor”, the clinical outcome (cancer patients [2]; (3) case (1): person, SCC of the tongue, metastasis to the left neck, with radiotherapy and chemotherapy) was “complete resolution of the tumor” and the clinical outcome (cancer patients [2]; (3) case (2): person, SCC of the tongue with metastasis to the left neck, with radiotherapy and chemotherapy) was “complete resolution of the tumor”. The clinical outcome (cancer patients [2]; (4) case (1): person, recurrent breast cancer with bone metastasis, with radiotherapy and chemotherapy) was “died of injury of cervical vertebra and paraplegia”, the clinical outcome (cancer patients [2]; (4) case (2): person, recurrent breast cancer, invasive duct carcinoma, with radiotherapy and chemotherapy) was “complete resolution of the tumor” and the clinical outcome (cancer patients [2]; (5) case (1): person, breast cancer (first on-set), 3 months, with radiotherapy, chemotherapy and resection) was “complete resolution of the tumor”. For the same compound, the clinical outcome (cancer patients [2]; (6) case (1): person, SCC of the epipharynx, metastases to lung and lumbar vertebra, with radiotherapy and chemotherapy) was “partial resolution of the tumor”, the clinical outcome (cancer patients [2]; (6) case (2): person, SCC of epipharynx with metastasis to the right neck, with radiotherapy and chemotherapy) was “complete resolution of the tumor” and the clinical outcome (cancer patients [2]; (6) case (3): person, pulmonary metastasis from epipharynx SCC, with radiotherapy and chemotherapy, patient later died after mixed infection) was “tumor disappeared”. The clinical outcome (cancer patients [2]; (6) case (4): person, maxillary/epipharyngeal cancer group, with irradiation and chemotherapy) was “partially resolved”, the clinical outcome (cancer patients [2]; (7) case (1): person, tumor of the right anterior ear, SCC of parotid gland, with radiation therapy and chemotherapeutic agents) was “tumor disappeared” and the clinical outcome (cancer patients [2]; (7) case (2): person, SCC of the right external auditory canal, with radiotherapy, chemotherapy and resection) was “complete resolution”. The clinical outcome (cancer patients [2]; (7) case (3): person, SCC relapsed in the left anterior ear, with radiotherapy, chemotherapy and resection) was “completely disappeared”, the clinical outcome (cancer patients [2]; (8) case (1): person, metastatic lung cancer, primary rectal cancer, dotted shadow of right lower lung field, with radiotherapy and chemotherapy) was “reduced to 1/4” and the clinical outcome (cancer patients [2]; (8) case (2): person, metastatic lung cancer, primary hypopharynx cancer, with radiotherapy and chemotherapy) was “disappeared completely”. The clinical outcome (cancer patients [2]; (8) case (3): person, metastatic lung cancer, primary esophageal cancer (upper), with radiotherapy and chemotherapy) was “disappeared completely”, the clinical outcome (cancer patients [2]; (8) case (4): person, primary pharyngeal cancer, metastases to hili of the lung, with radiotherapy and chemotherapy) was “the enlargement of the pharynx and of the hili of the lung disappeared” and the clinical outcome (cancer patients [2]; (8) case (5): person, primary pancreatic carcinoma, pulmonary metastasis, with radiotherapy and chemotherapy) was “disappeared completely”. For the same compound, the clinical outcome (cancer patients [2]; (8) case (6): person, primary colon cancer, pulmonary metastasis, with radiotherapy and chemotherapy) was “Partial resolution”, the clinical outcome (cancer patients [2]; (9) case (1): person, recurrent ovarian cancer, with chemotherapeutic agents) was “remained unchanged” and the clinical outcome (cancer patients [2]; (9) case (2): person, ovarian cancer, metastases to Virchow's nodes, abdominal tumor, with radiotherapy and chemotherapy) was “disappeared completely”. For the same compound, the clinical outcome (cancer patients [2]; (9) case (3): person, uterine cancer, SCC, with radiation therapy (40 Gy) and chemotherapy) was “partial resolution of the tumor”, the clinical outcome (cancer patients [2]; (9) case (4): person, stomach cancer with ascites, after resection, with irradiation and chemotherapy) was “died of DIC” and the clinical outcome (cancer patients [2]; (10) case (1): person, colorectal cancer, tubular ADC, with radiotherapy and chemotherapy) was “died of mixed infection”. The clinical outcome (cancer patients [2]; (10) case (2): person, colorectal cancer with pulmonary and nodal metastasis, ascites, with radiotherapy and chemotherapy) was “ascites were reduced and the patient became ambulant”, the clinical outcome (cancer patients [2]; (10) case (3): person, tumor of the right hypogastrium, CK and ADC, with radiotherapy and chemotherapy) was “ascites were removed” and the clinical outcome (cancer patients [2]; (11) case (1): person, liposarcoma of the left chest wall with metastasis to the right mediastinum, with radiotherapy and chemotherapy) was “Partial resolution”. The clinical outcome (cancer patients [2]; (11) case (2): person, pelvic chondrosarcoma, treatment from November 1990 with radiotherapy and chemotherapy) was “living as of February 1991”, the clinical outcome (cancer patients [2]; (11) case (3): person, chondrosarcoma of the right leg, pulmonary metastasis, with radiotherapy and chemotherapy) was “Pain was relieved” and the clinical outcome (cancer patients [2]; (11) case (4): person, malignant lymphoma, tumor 4 x 4 cm at start, with radiotherapy and chemotherapy) was “Complete resolution”. The clinical outcome (cancer patients [2]; (11) case (5): person, malignant multiple schwannoma vertebrae, with radiotherapy and chemotherapy) was “paralysis of limbs was found”, the patients who died (cancer patients [2]; of the 39 patients of Test Example 8) was “four” and the “complete or partial resolution, overall” value (cancer patients [2]; summary of the 39 patients of Test Example 8) was “no patients in whom complete or partial resolution was not obtained”. The “tumor volume (effect versus 5-FU)” value (Meth A fibrosarcoma; Test (1): start tumor volume 70-100 mm³, irsogladine maleate 10 mg/kg orally once daily, comparator 5-fluorouracil 15 mg/kg orally, Fig. 1) was “effect comparable to that of 5-FU, 15 mg/kg”, the “tumor-inhibitory effect, single drug” value (Meth A fibrosarcoma; Test (2): start tumor volume 160-180 mm³, irsogladine maleate 10 mg/kg or 5-fluorouracil 30 mg/kg orally, Fig. 2) was “tumor-inhibitory effect” and the “tumor-inhibitory effect, combination therapy” value (Meth A fibrosarcoma; Test (2): start tumor volume 160-180 mm³, irsogladine maleate 10 mg/kg plus 5-fluorouracil 30 mg/kg orally, Fig. 2) was “more remarkable”. For the same compound, the “disappearance of tumor by palpation or diagnostic imaging” value (cancer patients [3]; 11 cases of breast cancer, 4 weeks after initiation, 2 mg/day x 2 orally with radiotherapy and chemotherapy) was “disappearance of tumor was confirmed”, the “disappearance of tumor by palpation or diagnostic imaging” value (cancer patients [3]; 13 cases of pharyngeal cancer and cancer of upper esophagus, 4 weeks after initiation, 2 mg/day x 2 orally with radiotherapy and chemotherapy) was “disappearance of tumor was confirmed” and the “cases with disappearance of tumor confirmed by palpation or diagnostic imaging” value (cancer patients [3]; all 45 cases of Test Example 7) was 45 cases. The “disappearance of tumor by palpation or diagnostic imaging” value (cancer patients [3]; five cases of rectal cancer, 4 weeks after initiation, 2 mg/day x 2 orally with radiotherapy and chemotherapy) was “disappearance of tumor was confirmed”, the “disappearance of tumor by palpation or diagnostic imaging” value (cancer patients [3]; nine cases of maxillary cancer and epipharyngeal cancer, 4 weeks after initiation, 2 mg/day x 2 orally with radiotherapy, bleomycin, carmofur, doxifluridine, tegafur) was “disappearance of tumor was confirmed” and the “cases with disappearance of tumor histologically verified by biopsy” value (cancer patients [3]; of the 45 cases of Test Example 7) was 14 cases. The “disappearance of tumor by diagnostic imaging” value (cancer patients [3]; one case of stomach cancer, 4 weeks after initiation, 2 mg/day x 2 orally with radiotherapy and chemotherapy) was “disappearance of tumor was confirmed” and the “disappearance of tumor by palpation or diagnostic imaging” value (cancer patients [3]; six cases of bladder cancer, renal cancer, ovarian cancer, etc., 4 weeks after initiation, 2 mg/day x 2 orally with radiotherapy and chemotherapy) was “disappearance of tumor was confirmed”.
